The structures appear in SMILES notation.

In this assay the target is Alpha-glucosidase MAL12 (Saccharomyces cerevisiae (strain ATCC 204508 / S288c), UniProt P53341). As to the kind of experiment: Alpha-glucosidase Assay. The protocol: Typically, α-glucosidase activity was assayed in 50 mM phosphate buffer (pH 6.8) containing 5% v/v DMSO and PNP glycoside was used as a substrate. The inhibitors were pre-incubated with enzyme at 37 °C for 0.5 h. The substrate was then added and the enzymatic reaction was carried out at 37 °C for 60 min. The reaction was monitored spectrophotometrically by measuring the absorbance at 400 nm.
Chain of Alpha-glucosidase MAL12 (P53341 whole entry): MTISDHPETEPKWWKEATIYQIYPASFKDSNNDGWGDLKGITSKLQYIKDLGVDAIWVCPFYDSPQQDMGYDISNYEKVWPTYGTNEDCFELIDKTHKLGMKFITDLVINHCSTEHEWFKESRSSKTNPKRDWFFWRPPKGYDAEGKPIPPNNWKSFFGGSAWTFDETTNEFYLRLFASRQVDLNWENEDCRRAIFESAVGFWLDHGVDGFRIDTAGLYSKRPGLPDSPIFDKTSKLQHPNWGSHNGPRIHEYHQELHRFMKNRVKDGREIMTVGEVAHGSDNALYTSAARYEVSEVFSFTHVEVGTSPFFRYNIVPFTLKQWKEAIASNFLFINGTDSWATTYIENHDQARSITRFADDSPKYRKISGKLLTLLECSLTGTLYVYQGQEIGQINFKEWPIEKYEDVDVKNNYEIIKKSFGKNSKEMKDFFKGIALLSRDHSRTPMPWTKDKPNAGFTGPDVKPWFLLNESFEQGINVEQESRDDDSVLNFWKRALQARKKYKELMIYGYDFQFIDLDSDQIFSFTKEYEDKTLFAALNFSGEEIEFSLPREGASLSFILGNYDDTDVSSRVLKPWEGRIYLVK

In the case of `COc1ccccc1C(=O)CSc1nnc2c(n1)[nH]c1ccccc12` [2-(5H-[1,2,4]triazino[5,6-b]indol-3-ylthio)-1-(2-methoxyphenyl)-ethanone (9)], half-maximal inhibition (IC50) required 51.6 µM.

`O=C(CSc1nnc2c(n1)[nH]c1ccccc12)c1cccc(Br)c1` [2-(5H-[1,2,4]triazino[5,6-b]indol-3-ylthio)-1-(3-bromophenyl)-ethanone (11)] returned an IC50 of 37.1 µM.

`O=C(CSc1nnc2c(n1)[nH]c1ccccc12)c1cccc(F)c1` [2-(5H-[1,2,4]triazino[5,6-b]indol-3-ylthio)-1-(3-flourophenyl)-ethanone (5)]: the IC50 is 38.1 µM.

Consider `O=C(CSc1nnc2c(n1)[nH]c1ccccc12)c1cccc(O)c1` [2-(5H-[1,2,4]triazino[5,6-b]indol-3-ylthio)-1-(3-hydroxyphenyl)-ethanone (1)], for which the concentration for half-maximal inhibition (IC50) came out at 2.46 µM.

In turn, `COc1cccc(C(=O)CSc2nnc3c(n2)[nH]c2ccccc23)c1` [2-(5H-[1,2,4]triazino[5,6-b]indol-3-ylthio)-1-(3-methoxyphenyl)-ethanone (10)] registered an IC50 of 313 µM.

As for `O=C(CSc1nnc2c(n1)[nH]c1ccccc12)c1ccc(Br)cc1` [2-(5H-[1,2,4]triazino[5,6-b]indol-3-ylthio)-1-(4-bromophenyl)-ethanone (3)], the IC50 was found to be 37.8 µM.

The compound `COc1ccc(C(=O)CSc2nnc3c(n2)[nH]c2ccccc23)cc1` [2-(5H-[1,2,4]triazino[5,6-b]indol-3-ylthio)-1-(4-methoxyphenyl)-ethanone (4)] came in with an IC50 of 28.9 µM.

For the compound `O=C(CSc1nnc2c(n1)[nH]c1ccccc12)c1ccc(-c2ccccc2)cc1` [2-(5H-[1,2,4]triazino[5,6-b]indol-3-ylthio)-1-(biphenyl-4-yl)-ethanone (2)], the IC50 is 78.4 µM.

The compound `CC(Sc1nnc2c(n1)[nH]c1ccccc12)C(=O)c1ccccc1` (stereo not given) [2-(5H-[1,2,4]triazino[5,6-b]indol-3-ylthio)-1-phenylpropane-1-one (8)] showed an IC50 of 36.9 µM.

`O=C(CSc1nnc2c(n1)[nH]c1ccccc12)c1cc2ccccc2oc1=O` [3-(2-(5H-[1,2,4]triazino[5,6-b]indol-3-ylthio)acetyl)-2H-chromen-2-one (7)] registered an IC50 of 37.4 µM.

For orientation: IC50 means the concentration needed to halve the response being measured. Lower therefore signals greater potency in that assay.

The values above are taken from BindingDB's records for doi:10.1016/j.bioorg.2014.12.001 (Hazara University, 2015).
